Results from patent US7994209B2, “3-phenoxymethylpyrrolidine compounds” (Theravance, Inc., priority 2009, dated 2011).

Assays:
hSERT [1] = biological target: T1, hSERT (Homo sapiens, UniProt P31645); assay: hSERT membrane radioligand binding assay (3H-citalopram), Assay 1; settings: SERT pKi, hSERT HEK-293 membranes, 1.0 nM 3H-citalopram; values given as lower bounds
hSERT [2] = biological target: T1, hSERT; assay: hSERT neurotransmitter uptake assay (3H-5-HT), Assay 2; assay type: cell-based; set-up: expressed in transfected cells; host or cells: HEK-293; settings: serotonin reuptake inhibition, 3H-5-HT uptake, HEK-293 hSERT cells (values without asterisk); read-out: SERT pIC50 (converted)
hNET [3] = biological target: T2, hNET (Homo sapiens, UniProt P23975); assay: hNET neurotransmitter uptake assay (3H-NE), Assay 2; assay type: cell-based; set-up: expressed in transfected cells; host or cells: HEK-293; settings: norepinephrine reuptake inhibition, 3H-NE uptake, HEK-293 hNET cells (values without asterisk); read-out: NET pIC50 (converted)
hNET [4] = biological target: T2, hNET; assay: hNET membrane radioligand binding assay (3H-nisoxetine), Assay 1

T2 sequence (P23975 whole entry): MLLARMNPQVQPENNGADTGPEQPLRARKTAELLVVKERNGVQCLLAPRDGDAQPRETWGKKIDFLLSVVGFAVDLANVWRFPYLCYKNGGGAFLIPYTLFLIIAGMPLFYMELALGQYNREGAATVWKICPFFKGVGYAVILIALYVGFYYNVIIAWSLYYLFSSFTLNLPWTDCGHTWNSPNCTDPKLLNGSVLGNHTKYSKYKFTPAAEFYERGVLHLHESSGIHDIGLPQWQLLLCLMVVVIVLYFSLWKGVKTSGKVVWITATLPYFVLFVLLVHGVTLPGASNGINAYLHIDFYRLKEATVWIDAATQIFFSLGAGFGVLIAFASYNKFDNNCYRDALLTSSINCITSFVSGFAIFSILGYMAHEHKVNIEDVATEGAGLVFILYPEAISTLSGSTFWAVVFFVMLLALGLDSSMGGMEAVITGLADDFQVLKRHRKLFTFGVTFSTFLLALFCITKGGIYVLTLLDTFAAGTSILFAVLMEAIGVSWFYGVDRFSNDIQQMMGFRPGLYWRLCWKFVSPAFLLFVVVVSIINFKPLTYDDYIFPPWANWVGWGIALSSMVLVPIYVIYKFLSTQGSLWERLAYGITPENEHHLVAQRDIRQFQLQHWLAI
T1 sequence (P31645 whole entry): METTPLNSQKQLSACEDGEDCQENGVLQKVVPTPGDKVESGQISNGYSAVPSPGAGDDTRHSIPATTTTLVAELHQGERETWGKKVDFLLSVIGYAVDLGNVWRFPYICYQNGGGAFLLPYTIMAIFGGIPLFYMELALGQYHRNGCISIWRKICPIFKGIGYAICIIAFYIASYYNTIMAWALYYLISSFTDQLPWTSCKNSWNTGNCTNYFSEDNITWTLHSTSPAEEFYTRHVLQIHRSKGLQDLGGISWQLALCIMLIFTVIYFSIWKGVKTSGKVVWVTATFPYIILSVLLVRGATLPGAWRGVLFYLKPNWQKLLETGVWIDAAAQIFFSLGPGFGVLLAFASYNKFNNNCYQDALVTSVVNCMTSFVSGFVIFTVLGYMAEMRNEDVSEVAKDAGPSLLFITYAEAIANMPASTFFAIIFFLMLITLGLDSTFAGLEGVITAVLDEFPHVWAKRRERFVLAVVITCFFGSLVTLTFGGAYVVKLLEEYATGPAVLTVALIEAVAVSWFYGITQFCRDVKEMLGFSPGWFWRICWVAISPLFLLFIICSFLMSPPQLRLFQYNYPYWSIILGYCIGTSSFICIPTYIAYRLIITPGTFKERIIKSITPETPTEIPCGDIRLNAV

Row | SMILES | Ki (hSERT [1]) [nM] | IC50 (hSERT [2]) [nM] | IC50 (hNET [3]) [nM] | Ki (hNET [4]) [nM]
1 | Cc1c(Cl)cccc1O[C@@H](C(C)C)[C@H]1CCNC1 [Example 6-39, (S)-3-[(S)-1-(3-Chloro-2-methylphenoxy)-2-methylpropyl]pyrrolidine] | ≤ 10 | ≤ 10 | ≤ 10 | ≤ 10
2 | Cc1c(Cl)cccc1O[C@H](C(C)C)[C@H]1CCNC1 [Example 6-40, (S)-3-[(R)-1-(3-Chloro-2-methylphenoxy)-2-methylpropyl]pyrrolidine] | ≤ 10 | ≤ 10 | ≤ 10 | ≤ 10
3 | Cc1cccc(O[C@H](C(C)C)[C@H]2CCNC2)c1C [Example 6-43, (S)-3-[(R)-1-(2,3-Dimethylphenoxy)-2-methylpropyl]pyrrolidine] | ≤ 10 | ≤ 10 | ≤ 10 | ≤ 10
4 | Cc1cc(Cl)ccc1O[C@@H](C(C)C)[C@H]1CCNC1 [Example 6-45, (S)-3-[(S)-1-(4-Chloro-2-methylphenoxy)-2-methylpropyl]pyrrolidine] | ≤ 10 | ≤ 10 | ≤ 10 | ≤ 10
5 | COc1cc(Cl)ccc1O[C@@H](C(C)C)[C@H]1CCNC1 [Example 6-47, (S)-3-[(S)-1-(4-Chloro-2-methoxyphenoxy)-2-methylpropyl]pyrrolidine] | ≤ 10 | ≤ 10 | ≤ 10 | ≤ 10
6 | CC(C)C(Oc1ccc(Cl)cc1C(F)(F)F)C1CCNC1 (stereo not drawn) [Example 6-50, 3-[1-(4-Chloro-2-trifluoromethylphenoxy)-2-methylpropyl]pyrrolidine] | ≤ 10 | ≤ 100 | ≤ 10 | ≤ 10
7 | CC(C)[C@H](Oc1ccc(Cl)c(F)c1)[C@H]1CCNC1 [Example 6-56, (S)-3-[(S)-1-(4-Chloro-3-fluorophenoxy)-2-methylpropyl]pyrrolidine] | ≤ 10 | ≤ 10 | ≤ 10 | ≤ 10
8 | CC(C)[C@H](Oc1ccc(Cl)c(Cl)c1)[C@H]1CCNC1 [Example 6-62, (S)-3-[(S)-1-(3,4-Dichlorophenoxy)-2-methylpropyl]pyrrolidine] | ≤ 10 | ≤ 10 | ≤ 10 | ≤ 10
9 | CC(C)[C@H](Oc1cc(Cl)cc(Cl)c1)[C@H]1CCNC1 [Example 6-66, (S)-3-[(S)-1-(3,5-Dichlorophenoxy)-2-methylpropyl]pyrrolidine] | ≤ 10 | ≤ 10 | ≤ 100 | ≤ 100
10 | CC(C)[C@@H](Oc1cc(Cl)cc(Cl)c1)[C@H]1CCNC1 [Example 6-68, (S)-3-[(R)-1-(3,5-Dichlorophenoxy)-2-methylpropyl]pyrrolidine] | ≤ 10 | ≤ 10 | ≤ 10 | ≤ 10
11 | Cc1cc(O[C@@H](C(C)C)[C@H]2CCNC2)ccc1Cl [Example 6-70, (S)-3-[(S)-1-(4-Chloro-3-methylphenoxy)-2-methylpropyl]pyrrolidine] | ≤ 10 | ≤ 10 | ≤ 10 | ≤ 10
12 | CC(C)C(Oc1ccc(Cl)cc1)C1CCNC1 (stereo not drawn) [Example 6-74, 3-[1-(4-Chlorophenoxy)-2-methylpropyl]pyrrolidine] | ≤ 10 | ≤ 10 | ≤ 10 | ≤ 10
13 | CC(C)[C@@H](Oc1ccc(Cl)cc1)[C@@H]1CCNC1 [Example 6-75, (R)-3-[(R)-1-(4-Chlorophenoxy)-2-methylpropyl]pyrrolidine] | ≤ 10 | ≤ 10 | ≤ 100 | ≤ 100
14 | CCCC[C@@H](Oc1cc(F)c(F)cc1F)[C@H]1CCNC1 [Example 7, (S)-3-[(R)-1-(2,4,5-Trifluorophenoxy)pentyl]pyrrolidine] | ≤ 10 | ≤ 100 | ≤ 10 | ≤ 10
15 | CCCC[C@@H](Oc1ccccc1Cl)[C@H]1CCNC1 [Example 8-1, (S)-3-[(R)-1-(2-Chlorophenoxy)pentyl]pyrrolidine] | ≤ 10 | ≤ 100 | ≤ 10 | ≤ 10
16 | CCCC[C@@H](Oc1ccccc1C(F)(F)F)[C@H]1CCNC1 [Example 8-2, (S)-3-[(R)-1-(2-Trifluoromethylphenoxy)pentyl]pyrrolidine] | ≤ 10 | ≤ 100 | ≤ 100 | ≤ 10
17 | CCCC[C@@H](Oc1ccc(F)cc1)[C@H]1CCNC1 [Example 8-3, (S)-3-[(R)-1-(4-Fluorophenoxy)pentyl]pyrrolidine] | ≤ 10 | ≤ 100 | ≤ 100 | ≤ 10
18 | CCCC[C@@H](Oc1ccc(Cl)cc1)[C@H]1CCNC1 [Example 8-4, (S)-3-[(R)-1-(4-Chlorophenoxy)pentyl]pyrrolidine] | ≤ 10 | ≤ 10 | ≤ 10 | ≤ 10

Row | SMILES | Ki (hSERT [1]) [nM] | IC50 (hSERT [2]) [nM] | IC50 (hNET [3]) [nM] | Ki (hNET [4]) [nM]
19 | CCCC[C@@H](Oc1c(Cl)cccc1Cl)[C@H]1CCNC1 [Example 8-12, (S)-3-[(R)-1-(2,6-Dichlorophenoxy)pentyl]pyrrolidine] | ≤ 10 | ≤ 100 | ≤ 10 | ≤ 10
20 | CCCC[C@@H](Oc1cc(Cl)cc(Cl)c1)[C@H]1CCNC1 [Example 8-13, (S)-3-[(R)-1-(3,5-Dichlorophenoxy)pentyl]pyrrolidine] | ≤ 10 | ≤ 10 | ≤ 10 | ≤ 10
21 | CC(C)C[C@H](Oc1ccccc1F)[C@H]1CCNC1 [Example 10-1, (S)-3-[(S)-1-(2-Fluorophenoxy)-3-methylbutyl]pyrrolidine] | ≤ 10 | ≤ 100 | ≤ 10 | ≤ 10
22 | CC(C)CC(Oc1ccccc1Cl)C1CCNC1 (stereo not drawn) [Example 10-3, 3-[1-(2-Chlorophenoxy)-3-methylbutyl]pyrrolidine] | ≤ 10 | ≤ 100 | ≤ 10 | ≤ 10
23 | COc1ccccc1O[C@@H](CC(C)C)[C@H]1CCNC1 [Example 10-4, (S)-3-[(S)-1-(2-Methoxyphenoxy)-3-methylbutyl]pyrrolidine] | ≤ 10 | ≤ 100 | ≤ 10 | ≤ 10
24 | CC(C)C[C@H](Oc1cccc(F)c1)[C@H]1CCNC1 [Example 10-5, (S)-3-[(S)-1-(3-Fluorophenoxy)-3-methylbutyl]pyrrolidine] | ≤ 10 | ≤ 100 | ≤ 10 | ≤ 10
25 | CC(C)CC(Oc1cccc(C(F)(F)F)c1)C1CCNC1 (stereo not drawn) [Example 10-7, 3-[3-Methyl-1-(3-trifluoromethylphenoxy)butyl]pyrrolidine] | ≤ 10 | ≤ 100 | ≤ 100 | ≤ 100
26 | CC(C)C[C@H](Oc1ccc(F)cc1)[C@H]1CCNC1 [Example 10-8, (S)-3-[(S)-1-(4-Fluorophenoxy)-3-methylbutyl]pyrrolidine] | ≤ 10 | ≤ 100 | ≤ 10 | ≤ 10
27 | CC(C)CC(Oc1ccc(F)cc1)C1CCNC1 (stereo not drawn) [Example 10-9, 3-[1-(4-Fluorophenoxy)-3-methylbutyl]pyrrolidine] | ≤ 10 | ≤ 100 | ≤ 10 | ≤ 10
28 | CC(C)CC(Oc1ccc(Cl)cc1)C1CCNC1 (stereo not drawn) [Example 10-10, 3-[1-(4-Chlorophenoxy)-3-methylbutyl]pyrrolidine] | ≤ 10 | ≤ 10 | ≤ 10 | ≤ 10
29 | CC(C)C[C@@H](Oc1ccc(Cl)cc1)[C@H]1CCNC1 [Example 10-11, (S)-3-[(R)-1-(4-Chlorophenoxy)-3-methylbutyl]pyrrolidine] | ≤ 10 | ≤ 10 | ≤ 10 | ≤ 10
30 | CC(C)C[C@H](Oc1ccc(Cl)cc1)[C@H]1CCNC1 [Example 10-13, (S)-3-[(S)-1-(4-Chlorophenoxy)-3-methylbutyl]pyrrolidine] | ≤ 10 | ≤ 10 | ≤ 10 | ≤ 10
31 | CC(C)CC(Oc1ccc(C(F)(F)F)cc1)C1CCNC1 (stereo not drawn) [Example 10-15, 3-[3-Methyl-1-(4-trifluoromethylphenoxy)butyl]pyrrolidine] | ≤ 10 | ≤ 10 | ≤ 100 | ≤ 10
32 | CC(C)C[C@H](Oc1ccc(C(F)(F)F)cc1)[C@H]1CCNC1 [Example 10-16, (S)-3-[(S)-3-Methyl-1-(4-trifluoromethylphenoxy)butyl]pyrrolidine] | ≤ 10 | ≤ 10 | ≤ 10 | ≤ 10
33 | CC(C)C[C@@H](Oc1cccc(Cl)c1F)[C@H]1CCNC1 [Example 10-18, (S)-3-[(R)-1-(3-Chloro-2-fluorophenoxy)-3-methylbutyl]pyrrolidine] | ≤ 10 | ≤ 10 | ≤ 10 | ≤ 10
34 | CC(C)C[C@H](Oc1cccc(Cl)c1F)[C@H]1CCNC1 [Example 10-19, (S)-3-[(S)-1-(3-Chloro-2-fluorophenoxy)-3-methylbutyl]pyrrolidine] | ≤ 10 | ≤ 10 | ≤ 10 | ≤ 10
35 | CC(C)CC(Oc1cccc(C(F)(F)F)c1F)C1CCNC1 (stereo not drawn) [Example 10-20, 3-[1-(2-Fluoro-3-trifluoromethylphenoxy)-3-methylbutyl]pyrrolidine] | ≤ 10 | ≤ 100 | ≤ 100 | ≤ 10
36 | CC(C)CC(Oc1cccc(Cl)c1Cl)C1CCNC1 (stereo not drawn) [Example 10-22, 3-[1-(2,3-Dichlorophenoxy)-3-methylbutyl]pyrrolidine] | ≤ 10 | ≤ 10 | ≤ 10 | ≤ 10
